Data reported in patent publication US20230059009A1, “INHIBITORS OF LIN28 AND METHODS OF USE THEREOF” (The Regents of the University of California, priority 2019, published 2023).

Legend:
[1] = target: T1, LIN28B/pre-let-7a-2 binding (Homo sapiens, UniProt Q6ZN17); test: FRET assay, EGFP-tagged LIN28B and BHQ-1 labelled pre-let-7a-2; details: doses 1.25 uM-20 uM; compared with LN1632
T1 construct: made in house; host or cells: stably transduced HEK cells; used as diluted protein lysate, not purified
T1 sequence (Q6ZN17 1-250): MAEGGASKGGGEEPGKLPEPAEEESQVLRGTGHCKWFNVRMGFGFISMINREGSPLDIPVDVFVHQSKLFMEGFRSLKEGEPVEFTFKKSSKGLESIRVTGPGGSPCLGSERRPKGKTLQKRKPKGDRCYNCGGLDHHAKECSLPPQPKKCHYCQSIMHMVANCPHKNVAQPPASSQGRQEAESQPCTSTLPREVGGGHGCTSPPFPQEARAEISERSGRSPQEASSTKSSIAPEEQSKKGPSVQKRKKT
Method: As described herein, compounds of formula (I) and (II) show Lin28/let-7 inhibitory activity in FRET assays in vitro and in LSCs and LSC-like Kasumi-1 cells. FRET assay was performed as previously described (51).
In order to improve binding and inhibitory capacity of a compound to LIN28b, we predicted the binding mode of LN1632 to LIN28B. […] With this model in hand, we synthesized novel compounds with improved binding capacity to Lin28b (JGJ002-JGJ008, FIG. 8). Compounds were screened using a previously described FRET-assay with an EGFP-tagged LIN28B as donor and a BHQ-1 quencher labelled pre-let-7a-2 (pre-let-7a-2-BHQ1) as acceptor (51). Briefly, recombinant LIN28B-EGFP was harvested from stably transduced HEK cells and diluted with binding buffer (300 mM NaCl, 25 mM HEPES pH 7.2, 10 μM ZnCl2, 1% Odyssey Blocking Buffer, 0.05% Tween 20, 0.5 mM TCEP) in order to adjust ideal FRET-quenching signal intensity. Protein lysate and compounds (JGJ001-JGJ008) were pre-incubated in doses ranging from 1.25 uM-20 uM for 20 min in 100 uL diluted protein lysate. Subsequently pre-let-7a-2-BHQ1 was added to the mixture (at 6.25 nM) and EGFP-LIN28B donor emission was measured using a Tecan Spark Plate Reader ([…], excitation at 488 nm, emission read-out at […], 30 flashes/s). […] Increased endogenous let-7 miRNA levels can target a panoply of LCS and cancer stem cell hallmark genes thus inhibiting tumor growth.
(§1) To test the structure-activity relationship, 39 LN1632-related analogs (JGJ001-39) were synthesized and their potency and specificity to inhibit LIN28B-RNA binding activity and upregulate mature let-7 miRNA levels was measured. […] The dual luciferase reporter assay was performed as previously described (89).

[2] = test system: HCT-116; test: Cell viability, CTG, HCT-116; type: cell-based; details: Homo sapiens, HCT-116 (Colon)
Method: (§2) To measure cell viability, cell titer glow (CTG, Promega CellTiter-Glo 2.0 Assay) and MTT assays (SigmaAldrich, Cell Proliferation Kit I) were performed. Briefly, cells were serum starved overnight prior to seeding in 96-well plates. Following 24 h incubation, cells were treated with increasing concentrations of JGJ compounds for 96 hr. At assay read-out, CellTiter-Glo reagent was added and luminescence was measured after 10-minutes incubation at room temperature. For the MTT assay, MTT labeling reagent was added and incubated for 4 h. Subsequently, medium was removed and 50 μL DMSO was added to solubilize the crystals, and absorbance was measured at 570 nm. Cell viability was calculated as (Sample-Background)/(Control-Background). Current standard of care drugs, Enzalutamide, Palbociclib and Cetuximab were used as comparative controls.

[3] = test system: LNCaP; test: Cell viability, MTT assay, LNCaP; type: cell-based; details: Homo sapiens, LNCaP (Prostate)
Method: as §2, with “(Sample-Background)/(Control-Background).” for “(Sample-Background)/(Control-Background). Current standard of care drugs, Enzalutamide, Palbociclib and Cetuximab were used as comparative controls.”

[4] = test system: SW480; test: Cell viability, CTG, SW480; type: cell-based; details: Homo sapiens, SW480 (Colon)
Method: as §2, with “(Sample-Background)/(Control-Background).” for “(Sample-Background)/(Control-Background). Current standard of care drugs, Enzalutamide, Palbociclib and Cetuximab were used as comparative controls.”

[5] = test system: SW480; test: Cell viability, MTT assay, SW480; type: cell-based; details: Homo sapiens, SW480 (Colon)
Method: as §2

[6] = test system: MDA-MB231; test: Cell viability, CTG, MDA-MB231; type: cell-based; details: Homo sapiens, MDA-MB-231, MDA-MB231 (Breast)
Method: as §2

[7] = test system: 22RV1; test: Cell viability, MTT assay, 22RV1; type: cell-based; details: Homo sapiens, 22RV1 (Prostate), 96 hr
Method: as §2, with “(Sample-Background)/(Control-Background).” for “(Sample-Background)/(Control-Background). Current standard of care drugs, Enzalutamide, Palbociclib and Cetuximab were used as comparative controls.”

[8] = test system: SW620; test: Cell viability, MTT assay, SW620; type: cell-based; details: Homo sapiens, SW-620, SW620 (Colon)
Method: as §2

[9] = test system: MYC-driven cancers; test: Cell viability and cell counting assays in cancer cells; type: cell-based; details: TNBC, CRPC, lung and colorectal adenocarcinoma cells
Method: (§3) To test whether LN1632 and novel analogs thereof affect cancer cell growth, cell viability and cell counting assays in TNBC (FIG. 14B-D), castration resistant prostate cancer cells (CRPC, FIG. 15A-C) and colorectal cancer cells (CRC, FIG. 15A-C) were performed.
as §2

[10] = test system: SW948; test: Cell viability, CTG, SW948; type: cell-based; details: Homo sapiens, SW948 (Colon)
Method: as §2

[11] = test system: SW620; test: Cell viability, CTG, SW620; type: cell-based; details: Homo sapiens, SW-620, SW620 (Colon)
Method: as §2

[12] = test system: mature let-7 miRNAs; test: Dual luciferase reporter assay of mature let-7 miRNAs in HepG2 cells; type: cell-based; details: 3-10 μM, compared with LN1632
Method: as §1

[13] = test system: 22RV1; test: Cell viability, CellTiter-Glo (CTG), 22RV1; type: cell-based; details: Homo sapiens, 22RV1 (Prostate), 96 hr
Method: as §2, with “(Sample-Background)/(Control-Background).” for “(Sample-Background)/(Control-Background). Current standard of care drugs, Enzalutamide, Palbociclib and Cetuximab were used as comparative controls.”

[14] = test system: MCF7; test: Cell viability, MTT assay, MCF7; type: cell-based; details: Homo sapiens, MCF7 (Breast)
Method: as §2

[15] = test system: DU145; test: Cell viability, MTT assay, DU145; type: cell-based; details: Homo sapiens, DU-145, DU145 (Prostate)
Method: as §2

[16] = test system: MDA-MB231; test: Cell viability, MTT assay, MDA-MB231; type: cell-based; details: Homo sapiens, MDA-MB-231, MDA-MB231 (Breast)
Method: as §2

[17] = test system: 22Rv1 cells; test: 22Rv1 cell counting; type: cell-based; details: 2 μM JGJ023 vs 42 μM Enzalutamide, day +5, +7, +9
Method: as §3

[18] = test system: BT-549; test: Cell viability, MTT assay, BT-549; type: cell-based; details: Homo sapiens, BT-549 (Breast)
Method: as §2

[19] = test system: H460; test: Cell viability, MTT assay, H460; type: cell-based; details: Homo sapiens, NCI-H460, H460 (Lung)
Method: as §2

[20] = test system: A549; test: Cell viability, MTT assay, A549; type: cell-based; details: Homo sapiens, A549 (Lung)
Method: as §2, with “(Sample-Background)/(Control-Background).” for “(Sample-Background)/(Control-Background). Current standard of care drugs, Enzalutamide, Palbociclib and Cetuximab were used as comparative controls.”

[21] = test system: H1975; test: Cell viability, MTT assay, H1975; type: cell-based; details: Homo sapiens, NCI-H1975, H1975 (Lung)
Method: as §2, with “(Sample-Background)/(Control-Background).” for “(Sample-Background)/(Control-Background). Current standard of care drugs, Enzalutamide, Palbociclib and Cetuximab were used as comparative controls.”

[22] = test system: H23; test: Cell viability, MTT assay, H23; type: cell-based; details: Homo sapiens, NCI-H23, H23 (Lung)
Method: as §2

[23] = test system: H1568; test: Cell viability, MTT assay, H1568; type: cell-based; details: NCI-H1568, H1568 (Lung)
Method: as §2

| IC50 [2] | IC50 [3] | IC50 [6] | IC50 [7] | IC50 [10] | IC50 [11] | IC50 [13] | SMILES | Inhibition of LIN28B binding to pre-let-7a (FRET signal) [1] | Upregulation of mature let-7 miRNAs [12] | other results |
| --- | --- | --- | --- | --- | --- | --- | --- | --- | --- | --- |
| 43 µM | 3 µM | 3 µM | 1 µM | 85 µM | 3 µM | 2 µM | CC(=O)Nc1cccc(-c2ccc3[nH]cc(-c4ccccc4)c3n2)c1 [JGJ034, N-(3-(3-Phenyl-1H-pyrrolo[3,2-b]pyridin-5-yl)phenyl)acetamide] | inhibit LIN28's RNA-binding capacity significantly more than compound LN1632 | upregulated mature let-7 miRNAs at significantly lower doses than LN1632 | IC50 [4]: 41 µM; IC50 [5]: 33 µM; IC50 [8]: 2 µM; Proliferation and apoptosis of cancer cells [9]: reduced proliferation and induced apoptosis preferentially in MYC-driven cancers |
| 215 µM | 6 µM | 17 µM | 2 µM | 51 µM | 27 µM | 8 µM | CC(=O)Nc1cccc(-c2ccc3ncc(-c4ccccc4)n3n2)c1 [JGJ023, N-(3-(3-Phenylimidazo[1,2-b]pyridazin-6-yl)phenyl)acetamide] | inhibit LIN28's RNA-binding capacity significantly more than compound LN1632 | upregulated mature let-7 miRNAs at significantly lower doses than LN1632 | IC50 [14]: 38 µM; IC50 [15]: 3 µM; IC50 [16]: 61 µM; Apoptosis and cell numbers [17]: induces apoptosis and reduces cell numbers of mCRPC compared to Enzalutamide; IC50 [18]: 7 µM; IC50 [19]: 124 µM; IC50 [20]: 20 µM; IC50 [21]: 8 µM; IC50 [22]: 94 µM; IC50 [23]: 12 µM |
